The values that follow come from article PMC10363480 (Plant Communications, 2023).

The test system of one assay is mitochondria or chloroplast of Chlamydomonas reinhardtii. The assay can be described thus: Subcellular localization of Venus reporter by epifluorescence microscopy (manual targeting assignment). To be noted: C-terminal element of RCA1-cTP added to the named peptide; Figure 2 rows E and F; bare name = K and R versions. In kind it is cell-based. The source says: In a bid to keep peptidase recognition sites intact, C-terminal elements were designed to start 10 residues upstream of the cleavage site, even though this slightly truncates TP helices. Peptides carrying the 15-amino-acid cTP N-terminus (cTP-N) will be denoted ^cP. Similarly, peptides with C-terminal elements from RCA1-cTP (cTP-C) or CAG2-mTP (mTP-C) will be denoted P^c or P^m, respectively. Peptide variants are used to drive the subcellular localization of a Venus fluorescent reporter protein, which was assessed using fluorescence microscopy; in Figure 2, an executive overview of observed Venus localization is presented for all constructs. […] Here, we use automated image segmentation to validate our subcellular localization assessment (Supplemental Figure 2, Supplemental text). […] The reader will be asked to return to Figure 2 throughout, with Figures 3 and 4 providing selected micrographs as examples highlighting particular points of interest.
Chlamydomonas TP sequences were amplified from genomic DNA extracted from strain T222+ (CC-5101). Templates for codon-optimized HA-RAMP, RP, and R→K modified TP sequences were obtained by gene synthesis (Eurofins Genomics). Correct assembly was verified by sequencing (Eurofins Genomics). Linear transformation cassettes were generated through restriction digestion with EcoRV (New England Biolabs).
Constructs were transformed into wild-type strain T222+ (CC-5101) using a protocol described previously ([Onishi and Pringle, 2016]), except using 4 μl of DNA at 2 μg/μl.
Strains with suspected mitochondrial targeting were treated with 0.1 μM MitoTracker Red CMXRos (Thermo Fisher Scientific) in growth medium for 30 min in the dark and washed with TAP prior to taking images.
Legend for Fig. S3 – S20. Three independent transformant lines (Strains 1-3) are shown for each combination of modifications (A-L), represented by a cartoon and a shorthand description (cf. Fig.
2). Where a construct was interpreted as generating reporter localization in mitochondria or […]
Epifluorescence microscopy images of typical cells for each strain are shown. MitoTracker fluorescence, false-coloured in cyan, indicates the position of mitochondria (although parts of the cell exterior are sometimes also stained). False-coloured yellow fluorescence from the Venus channel reports on the subcellular localization of the fluorescent reporter. Chlorophyll autofluorescence, shown in magenta, indicates the location of the chloroplast. Scale bars are 5µm. Brightness (Br.) was adjusted for clarity: fluorescence intensity values were restricted to the range shown for each channel by matching coloured rectangles. Intensity scales to 0 at the bottom of the panel, and to 65535 at the top.
On the right-hand side, quantitative information associated with each construct is shown. Data was normalized such that averages range from 0 to 1 across all constructs (cf. Fig S2). Individual cell measurements may exceed this range; for clarity, the range shown here is limited to -0.5 to 1.5, with outliers that have more extreme values shown as lying beyond a dashed line. Strain 1 is plotted as circles, strain 2 as squares, and strain 3 as diamonds. Venus: Fluorescence plate reader data of transformants screened for this construct (Venus fluorescence, accounting for cell density using linear regression of OD750 and chlorophyll fluorescence trained on ‘no venus’ control transformants). Transformants that were not selected after screening are shown as small grey circles. A colour code ranging from white (low Venus fluorescence) to black (high Venus fluorescence) is used for strains 1-3 and the average thereof. Automated image quantification data: pyr/chl: Venus channel signal in the pyrenoid relative to in the chlorophyll region; mt/cell: Venus channel signal in mitochondria relative to the whole cell. Each point corresponds to a single cell.
The colour code code is the same as that below distributions in Fig. S2, i.e. blue highlights the […]
“VNYGNGVSCSKTKCSVNWGIITHQAFRVTSGVASG [B15, bacillocin 1580, HA-RAMP antimicrobial peptide, reference compound]”: the “chloroplast targeting upon addition of cTP-C (P^c)” value is recorded as “enabled chloroplast targeting”.

The same assay, now with this note: Figure 2; bare name = K and R versions.
In the case of “VNYGNGVSCSKTKCSVNWGIITHQAFRVTSGVASG [B15, bacillocin 1580, HA-RAMP antimicrobial peptide, reference compound]”, the “targeting when combining cTP-N with mTP-C (^cP^m)” value is “chloroplast targeting”.

Still in this assay, the particulars now being: manual targeting assignment of the Venus reporter construct in Chlamydomonas: Neither / Mitochondria / Chloroplast / Dual, (partial) = partial targeting.
Regarding “MDEVNNDNCRIRFRGDISSESDRMNINYLTQTAESFRGVSSQFFDAPNGPSVKQVLIEDEW [RP2.R.m]”, the Localisation result is on record as “Neither”. The same measure, in the same setting: as for “MRYYGNGVSCNRRGCSVDWGRAIGIIGNNAAANLTTGGRAGWRG [EHF.R]”, the entry is “Neither”; as for MGGAKVATK [CH.K], “Neither”; as for “MQVTMKSSAVSGQRVDEVNNDNCRIRFRGDISSESDRMNINY [c.RP2.R]”, “Neither”.

As for “MQVTMKSSAVSGQRVGGARVATRSVRRAQLQVVASSRKQMGRWRSIDAGVDASDDQ [c.CH.R.c]”, the Localisation result is on record as “Chloroplast”. Same read-out and setting: as for “MGGAKVATKLTQTAESFRGVSSQFFDAPNGPSVKQVLIEDEW [CH.K.m]”, the entry is “Neither”; as for “MQVTMKSSAVSGQRVRYYGNGVSCNRRGCSVDWGRAIGIIGNNAAANLTTGGRAGWRGSVRRAQLQVVASSRKQMGRWRSIDAGVDASDDQ [c.EHF.R.c]”, “Chloroplast”.

On to “MGLLLDTLRGAARDIAGIALERLRCRITGCRPSVRRAQLQVVASSRKQMGRWRSIDAGVDASDDQ [R2G.R.c]”, for which the Localisation result was “Neither”. For the sequence “MQVTMKSSAVSGQRVMGWIRDFGRRIERVGQHTRDATIQTIAVAQQAANVAATLRGSVRRAQLQVVASSRKQMGRWRSIDAGVDASDDQ [c.S1D.R.c]”, the Localisation entry is recorded as “Chloroplast”. Same read-out and setting: as for “MQVTMKSSAVSGQRVGRIPVRAIRRAGAAIGRGLRAINIASTAHDVYSFFRPRHRRRSVRRAQLQVVASSRKQMGRWRSIDAGVDASDDQ [c.SIM.R.c]”, the entry is “Chloroplast”. In the case of “MQVTMKSSAVSGQRVSFLTTFRDLAIRAARSAGQSVLSTLSCRLSNTCLTQTAESFRGVSSQFFDAPNGPSVKQVLIEDEW [c.B2I.R.m]”, the Localisation result is recorded as “Dual”. On the same count and under the same terms, as for “MSFLTTFRDLAIRAARSAGQSVLSTLSCRLSNTCSVRRAQLQVVASSRKQMGRWRSIDAGVDASDDQ [B2I.R.c]”, the entry is “Mitochondria”. Still for that read-out and setting: as for “MQVTMKSSAVSGQRVDEVNNDNCRIRFRGDISSESDRMNINYSVRRAQLQVVASSRKQMGRWRSIDAGVDASDDQ [c.RP2.R.c]”, the entry is “Neither”.

Turning to “MQVTMKSSAVSGQRVMGLLLDTLRGAARDIAGIALERLRCRITGCRPSVRRAQLQVVASSRKQMGRWRSIDAGVDASDDQ [c.R2G.R.c]”, the Localisation entry is “Dual”.

The assay is the same for the next values; noted with them: peptide-Venus reporter construct expressed in Chlamydomonas reinhardtii; manual targeting assignment (Neither / Mitochondria / Chloroplast / Dual; partial = partial targeting).
For the sequence “MQVTMKSSAVSGQRVMKYYGNGVHCTKSGCSVNWGEAFSAGVHRLANGGNGFWSVRRAQLQVVASSRKQMGRWRSIDAGVDASDDQ [c.LCA.K.c]”, the Localisation entry was “Chloroplast (partial)”. Consider “MQVTMKSSAVSGQRVGIGRFLHSARRFGRAFVGEIMNSLTQTAESFRGVSSQFFDAPNGPSVKQVLIEDEW [c.MII.R.m]”, for which the Localisation entry was “Dual”.

Regarding “MQVTMKSSAVSGQRVMVNYGNGVSCSKTKCSVNWGIITHQAFRVTSGVASG [c.B15.K]”, the Localisation entry is reported as “Neither”. The same measure, in the same setting: to “MGIGKFLHSAKKFGKAFVGEIMNSSVRRAQLQVVASSRKQMGRWRSIDAGVDASDDQ [MII.K.c]” belongs “Mitochondria”.

MWLSKTAKKLENSAKKRISEGIAIAIKGGSR [CP3.K]: the Localisation entry is “Neither”. On the same count and under the same terms, to “MVNYGNGVSCSRTRCSVNWGIITHQAFRVTSGVASG [B15.R]” belongs “Neither”; to “MQVTMKSSAVSGQRVMVNYGNGVSCSKTKCSVNWGIITHQAFRVTSGVASGLTQTAESFRGVSSQFFDAPNGPSVKQVLIEDEW [c.B15.K.m]”, “Chloroplast”; to “MQVTMKSSAVSGQRVMKYYGNGVHCTRSGCSVNWGEAFSAGVHRLANGGNGFW [c.LCA.R]”, “Neither”. “MQVTMKSSAVSGQRVMVNYGNGVSCSRTRCSVNWGIITHQAFRVTSGVASGSVRRAQLQVVASSRKQMGRWRSIDAGVDASDDQ [c.B15.R.c]”: the Localisation result was “Chloroplast”. Still for that read-out and setting: to “MKYYGNGVHCTRSGCSVNWGEAFSAGVHRLANGGNGFWLTQTAESFRGVSSQFFDAPNGPSVKQVLIEDEW [LCA.R.m]” belongs “Neither”; to “MVNYGNGVSCSRTRCSVNWGIITHQAFRVTSGVASGSVRRAQLQVVASSRKQMGRWRSIDAGVDASDDQ [B15.R.c]”, “Chloroplast”; to “MQVTMKSSAVSGQRVALWMTLLKKVLKAAAKAALNAVLVGANALTQTAESFRGVSSQFFDAPNGPSVKQVLIEDEW [c.DS4.K.m]”, “Neither”. On the same count and under the same terms, to “MQVTMKSSAVSGQRVMWLSRTARRLENSARRRISEGIAIAIRGGSRSVRRAQLQVVASSRKQMGRWRSIDAGVDASDDQ [c.CP3.R.c]” belongs “Chloroplast”. “MQVTMKSSAVSGQRVMGLFSKFNKKKIKSGLIKIIKTAGKEAGLEALRTGIDVIGCKIKGECSVRRAQLQVVASSRKQMGRWRSIDAGVDASDDQ [c.E1S.K.c]”: the Localisation result is “Chloroplast”. Take “MWLSRTARRLENSARRRISEGIAIAIRGGSRLTQTAESFRGVSSQFFDAPNGPSVKQVLIEDEW [CP3.R.m]”: the Localisation result is “Mitochondria”. With “MWLSKTAKKLENSAKKRISEGIAIAIKGGSRSVRRAQLQVVASSRKQMGRWRSIDAGVDASDDQ [CP3.K.c]”, the Localisation entry was “Neither”. For “MGLFSRFNRRRIRSGLIRIIRTAGREAGLEALRTGIDVIGCRIRGECSVRRAQLQVVASSRKQMGRWRSIDAGVDASDDQ [E1S.R.c]”, the Localisation entry is given as “Neither”. For the sequence “MALWMTLLKKVLKAAAKAALNAVLVGANALTQTAESFRGVSSQFFDAPNGPSVKQVLIEDEW [DS4.K.m]”, the Localisation entry was “Neither”. On the same count and under the same terms, to “MGLFSRFNRRRIRSGLIRIIRTAGREAGLEALRTGIDVIGCRIRGEC [E1S.R]” belongs “Neither”.

The same assay, now with this note: targeting of the Venus reporter fused to the peptide, expressed in Chlamydomonas reinhardtii; manual assignment from epifluorescence microscopy; full or partial.
In the case of MNIVVYWNFTLWHMDINARNAGCDGEGS [RP1.K], the Localisation entry is “Neither”. On the same count and under the same terms, to “MQVTMKSSAVSGQRVALWMTLLRRVLRAAARAALNAVLVGANASVRRAQLQVVASSRKQMGRWRSIDAGVDASDDQ [c.DS4.R.c]” belongs “Neither”; to “MQVTMKSSAVSGQRVMALWKTMLKKLGTMALHAGKAAFGAAADTISQLTQTAESFRGVSSQFFDAPNGPSVKQVLIEDEW [c.DDM.K.m]”, “Neither”. Same read-out and setting: to “MQVTMKSSAVSGQRVMGWIRDFGKRIERVGQHTRDATIQTIAVAQQAANVAATLKGLTQTAESFRGVSSQFFDAPNGPSVKQVLIEDEW [c.S1D.K.m]” belongs “Dual”; to “MALWMTLLRRVLRAAARAALNAVLVGANALTQTAESFRGVSSQFFDAPNGPSVKQVLIEDEW [DS4.R.m]”, “Neither”. Regarding “MQVTMKSSAVSGQRVGIGRFLHSARRFGRAFVGEIMNSSVRRAQLQVVASSRKQMGRWRSIDAGVDASDDQ [c.MII.R.c]”, the Localisation entry is “Chloroplast”. Regarding “MQVTMKSSAVSGQRVMWLSKTAKKLENSAKKRISEGIAIAIKGGSRLTQTAESFRGVSSQFFDAPNGPSVKQVLIEDEW [c.CP3.K.m]”, the Localisation result is “Chloroplast”. On to “MQVTMKSSAVSGQRVMWLSRTARRLENSARRRISEGIAIAIRGGSR [c.CP3.R]”, for which the Localisation result is on record as “Chloroplast (partial)”. On to MDEVNNDNCRIKFKGDISSESDKMNINY [RP2.K], for which the Localisation result is reported as “Neither”. “MQVTMKSSAVSGQRVMKYYGNGVSCNKKGCSVDWGKAIGIIGNNAAANLTTGGKAGWKG [c.EHF.K]”: the Localisation result is “Neither”. “MQVTMKSSAVSGQRVMKYYGNGVSCNKKGCSVDWGKAIGIIGNNAAANLTTGGKAGWKGSVRRAQLQVVASSRKQMGRWRSIDAGVDASDDQ [c.EHF.K.c]”: the Localisation entry is given as “Chloroplast”. Regarding “MQVTMKSSAVSGQRVDEVNNDNCRIKFKGDISSESDKMNINYLTQTAESFRGVSSQFFDAPNGPSVKQVLIEDEW [c.RP2.K.m]”, the Localisation result is given as “Neither”.
